Measurements published in patent US20020188202A1, “Method of diagnosis and treatment and related compositions and apparatus” (priority 1996, published 2002).
“Also recorded” adds a separate entry of the source. Read-outs that look alike come from different tables or passages of the source. Values belong to the molecule of their own block, whether it stands above or below them.

Experiments:
[1] = test system: patients with cerebral vasospasm; conditions: human, in vivo
[2] = test system: patient with migraine, schizophrenic reaction and vasospasm; assay: Case study: psychosis caused by cerebral ischemia, EEG and TCD; assay type: in vivo, human patient; conditions: single patient; for response of psychosis (hallucinations and delusions): in hospital
[3] = test system: patients with cerebral vasospasm; assay: Vasoactive medications tried on Applicant's patients with vasospasm, monitored by Transcranial Doppler (TCD), exam and symptoms; conditions: for EEG abnormalities and neurocognitive or neurological complaints / change of the vasospasm: anti-epileptic drugs in therapeutic doses; for effectiveness in treating the vasospasm: qualitative rating in Applicant's patient population (tend to be the most severe cases); for effect on vessels seen on TCD / ultrasound (vasoconstriction or dilatation) / headache / neurological exam and other neurological abnormalities: human, in vivo

- transient supersensitivity (transient worsening of the vasospasm) on early administration [1]: did not occur
Compound: NNc1nncc2ccccc12 [Hydralazine]
- blood pressure changes [1]: tends to cause significant blood pressure changes

Compound: O=C(CCCN1CCC(O)(c2ccc(Cl)cc2)CC1)c1ccc(F)cc1 [Haldol, Haloperidol]
- response of psychosis (hallucinations and delusions) [2]: did not respond; also recorded: poor response

Compound: CCCC(CCC)C(=O)[O-].[Na+] [Depakote, Sodium Valproate]
- EEG and flow abnormalities on Transcranial Doppler [2]: without change in their EEG and continued flow abnormalities
- EEG abnormalities and neurocognitive or neurological complaints [3]: improved in some patients
- change of the vasospasm [3]: none of the medications in therapeutic doses have changed the vasospasm

Compound: CC(C)NCC(O)COc1cccc2ccccc12 (stereo not shown) [Inderal, Propranolol]
- EEG and flow abnormalities on Transcranial Doppler [2]: without change in their EEG and continued flow abnormalities
- smoothing out the sympathetic nervous system excitability and variability ([3]; patients being tapered off vasodilators): most effective; also recorded: extremely effective
- effectiveness in treating the vasospasm [3]: None of these have been significantly effective at vasodilation

- transient supersensitivity (transient worsening of the vasospasm) on early administration [1]: did not occur
Compound: Clc1cccc(Cl)c1N=C1NCCN1 [Clonidine]
- effect on vessels seen on TCD / ultrasound (vasoconstriction or dilatation) [3]: resulted in vascular dilatation
- headache [3]: alleviated or treated the headache
- neurological exam and other neurological abnormalities [3]: clinical and neurological exam improvement
- treating migraine induced depression due to chronic vasospasm ([3]; patients who could not tolerate or respond to other vasodilators): useful in these depressed patients
- effectiveness in treating the vasospasm [3]: extremely effective

Compound: Cc1nc2n(c(=O)c1CCN1CCC(c3noc4cc(F)ccc34)CC1)CCCC2 [Respiradol, Respiradone]
- patient's symptoms ([3]; antipsychotic agents in patients with vasospasm): generally improved the patient's symptoms
- effect on vessels seen on TCD / ultrasound (vasoconstriction or dilatation) [3]: no significant improvement on ultrasound
- tolerability [1]: less well-tolerated in comparison with Thorazine and Navane

- transient supersensitivity (transient worsening of the vasospasm) on early administration [1]: did not occur
Compound: COC(=O)C1=C(C)NC(C)=C(C(=O)OC(C)C)C1c1cccc2nonc12 (stereo not shown) [Dynacirc, isradipine]
- effect on vessels seen on TCD / ultrasound (vasoconstriction or dilatation) [3]: resulted in vascular dilatation
- headache [3]: alleviated or treated the headache
- neurological exam and other neurological abnormalities [3]: clinical and neurological exam improvement
- effectiveness in treating the vasospasm [3]: extremely effective

Compound: CN1CCN(CC/C=C2/c3ccccc3Sc3ccc(S(=O)(=O)N(C)C)cc32)CC1 [Navane, Thiothixene]
- response of psychosis (hallucinations and delusions) [2]: good response
- improvement in the Transcranial Doppler Artery Ultrasound ([3]; patients with TCD mean flow velocities greater than 1.3, within a half hour of 2 mg in 4 ounces of water orally, generally expected): 50%
- blood pressure changes ([3]; patients with vasospasm): without causing peripheral blood pressure changes
- effectiveness in treating the vasospasm [3]: extremely effective central vasodilator
- effectiveness in treating the vasospasm ([3]; listed as Navanne): most effective

Compound: NC(=O)N1c2ccccc2C=Cc2ccccc21 [Tegretol, Carbamazepine]
- EEG abnormalities and neurocognitive or neurological complaints [3]: improved in some patients
- change of the vasospasm [3]: none of the medications in therapeutic doses have changed the vasospasm

Compound: CNCCC(Oc1ccc(C(F)(F)F)cc1)c1ccccc1 (stereo not shown) [Prozac]
- effectiveness in treating the vasospasm [3]: helpful

Compound: NCCCC[C@H](N[C@@H](CCc1ccccc1)C(=O)O)C(=O)N1CCC[C@H]1C(=O)O [Prinivil, Lisinopril]
- effectiveness in treating the vasospasm [3]: close second tier medications

Compound: CC(CCc1ccccc1)NCC(O)c1ccc(O)c(C(N)=O)c1 (stereo not shown) [Normodyne, Labetolol]
- effectiveness in treating the vasospasm [3]: None of these have been significantly effective at vasodilation

Compound: CC(C)NCC(O)COc1ccc(CC(N)=O)cc1 (stereo not shown) [Tenormin, Atenolol]
- effectiveness in treating the vasospasm [3]: None of these have been significantly effective at vasodilation

Compound: CNS(=O)(=O)Cc1ccc2[nH]cc(CCN(C)C)c2c1 [Imitrex, sumatriptan succinate]
- effect on vessels seen on TCD / ultrasound (vasoconstriction or dilatation) [3]: caused vasoconstriction
- headache [3]: improved their headache
- neurological exam and other neurological abnormalities [3]: worsened the patient's neurological exam and mentation
